In patent US11986482B2, “Method of promoting antitumor or anti-cancer immunity” (City University of Hong Kong, priority 2021, dated 2024):
“Also recorded” adds a separate entry of the source.

Experiments:
HeLa cells = test: Fluorescent transferrin conjugates recycling assay; assay type: cell-based; conditions: compound 3 h, Transferrin-488 25 μg/ml, flow cytometry
Procedure: A DQ-BSA endocytic trafficking assay screens these compounds. DQ-BSA, a self-quenching dye, is internalized into the cytoplasm by endocytosis, after which it is delivered to the lysosomes for degradation to relieve fluorescence-quenching, resulting in bright fluorescence in cells. HeLa cells are plated on 6-well plates and treated with the indicated compound for 3 h. Then, cells are replaced with Trafficking media containing 10 μg/ml DQ-green BSA with or without drugs (1 μM) and incubated at 37° C. in a 5% CO2 humidified cell culture chamber another 6 h followed by Flow cytometry analysis. […] Inventors also test whether these hit compounds can inhibit the recycling endosomal pathway by performing the fluorescent transferrin conjugates recycling assay. Iron-bound transferrin interacts with its receptor (TfR) to trigger the internalization of the iron-transferrin-TfR complex via clathrin-mediated endocytosis. Fe^3+ irons are subsequently dissociated from their ligands in the acidic endosome environment and released into the cytoplasm. […] Thus, the fluorescence intensity of fluorescent transferrin conjugates-labeled cells can reflect the recycling endocytic trafficking process. […] Cells are collected for flow cytometry analysis, and the mean fluorescence intensity of transferrin is quantified.

4T1 cells [1] = test: Extracellular vesicle concentration, Nanosight nanoparticle analyzer, 4T1 cells; assay type: cell-based, mouse; conditions: 1 μM
Procedure: The current PD-L1 and PD1 therapies apply PD-L1 or PD1 monoclonal antibodies to block the PD-L1/PD1 signaling, which results in cytotoxic T cells recognizing and killing the tumor cells. […] First, flow cytometry-based quantification of plasma membrane levels of PD-L1 in 4T1 cells treated with or without 6J1 (1 μM) for 24 h. 4T1 cells are treated with or without 6J1 (1 μM) for 24 h. The supernatant is collected, and the concentration of extracellular vesicle is determined using a Nanosight nanoparticle analyzer in FIG. 8b. The exosomes are also collected and subjected to western blot analysis of the EVs marker and PD-L1 in FIG. 8c.
To assess whether the in vivo antitumor growth effect of 6J1 is related to its effect on PD-L1 in 4T1 cells, inventors knock out PD-L1 via CRISPR/Cas9 in 4T1 cells (FIG. 10a). 4T1-NC or 4T1-PD-L1 knockout cells are treated with or without 6J1 (1 μM) for 24 h. The supernatant is collected, and the concentration of extracellular vesicle is determined using a Nanosight nanoparticle analyzer. The exosomes are also collected and subjected to western blot analysis of the EVs marker and PD-L1. […] Inventors then transplant control or PD-L1-knockout 4T1 cells into the fat pad of syngeneic female Balb/c mice. The mice are randomly divided (n=5 per group) and treated with either buffer or 6J1 (30 mg/kg, daily) via oral gavage.
Therefore, it is possible that the increased exosomal PD-L1 secretion induced by 6J1 may still suppress the tumor-infiltrating T cell cytotoxicity in vivo, even though 6J1 reduces the cell surface expression level of PD-L1 on the tumor cells. To evaluate the role of exosomal PD-L1 in the tumor microenvironment and tumor progression in mice, inventors knock out Rab27a in 4T1 cells to inhibit the secretion of exosomes. 4T1-shNC or 4T1-shRab27A cells are treated with or without 6J1 (1 μM). The supernatant is collected, and the concentration of extracellular vesicle is determined using a Nanosight nanoparticle analyzer. […] Inventors analyze the plasma membrane levels of PD-L1 in 4T1-shNC or 4T1-shRab27A cells treated with or without 6J1 (1 μM). […]

4T1 cells [2] = test: T cell-mediated tumor cell killing assay; assay type: cell-based, mouse; conditions: 6J1 (1 µM) per FIG. 8d legend, CCK8 assay
B16-F10 cells = test: B16-F10 melanoma model in C57BL/6J mice; assay type: in vivo, mouse; conditions: 30 mg/kg, daily, oral gavage, 4 weeks
Procedure: Inventors also examine the anti-cancer effect of 6J1 in a melanoma xenograft mouse model, by the subcutaneous injection of B16-F10 cells in syngeneic C57BL mice. B16-F10 cells are subcutaneously injected into the flank of female C57BL/6J mice. The mice are randomly divided (n=6 per group). They are treated with either buffer or 6J1 (30 mg/kg, daily, oral gavage) after tumors reach around 5 mm for 4 weeks. After 4 weeks, the primary tumors are collected for analysis. […] In addition, a flow cytometry-based quantification of the levels of plasma membrane PD-L1 in the primary tumor is performed in FIG. 15e. […] In B16-F10 tumors, fold change of CD3+CD8+ T-cell populations, and percentage of intracellular IFN-γ in the isolated tumor-infiltrating lymphocytes (TILs) are determined by flow cytometry analysis in FIGS. 15f and 15g.

Q: How did the “recycling endosomal trafficking of transferrin (mean fluorescence intensity)” value (HeLa cells) turn out when `OCCOCCN(c1ccccc1)c1nc(N/N=C/c2cccc(I)c2)nc(N2CCOCC2)n1` [Compound 6J1] was run?
A: effectively inhibit the recycling endosomal trafficking of transferrin; also recorded: performs best

Q: What about the “6J1-induced EVs secretion” value (4T1 cells [1]; 4T1-shRab27A cells) of the same molecule?
A: significantly inhibits 6J1-induced EVs secretion

Q: And the “6J1-induced EVs secretion” value (4T1 cells [1]; PD-L1-knockout 4T1 cells, 24 h)?
A: does not affect 6J1-induced EVs secretion

Q: And the “sensitivity of 4T1 cells to pre-activated T cell-mediated cytolysis” value (4T1 cells [2])?
A: more sensitive to pre-activated T cell-mediated cytolysis

Q: What about the “animal's body weight” value (B16-F10 cells) of the same molecule?
A: without affecting the animal's body weight

Q: And the “expression of IFN-γ in tumor-infiltrating lymphocytes” value (B16-F10 cells)?
A: only subtly increases the expression of IFN-γ

Q: What about the “growth of B16-F10 tumors” value (B16-F10 cells) of the same molecule?
A: markedly inhibits the growth of B16-F10 tumors

Q: And the “levels of PD-L1 at the cell surface of the primary tumors” value (B16-F10 cells)?
A: significantly decreases the levels of PD-L1 at the cell surface of the primary tumors

Q: What about the “percentage of tumor-infiltrating CD8+ T cell populations” value (B16-F10 cells) of the same molecule?
A: markedly increases the percentage of tumor-infiltrating CD8+ T cell populations
